The chromatographic logD is lipophilicity estimated from chromatographic retention. Read a low chromatographic logD as a more hydrophilic compound. By IC50 is commonly meant the concentration needed to halve the response being measured. A low value points to greater potency. One may read the kinetic solubility as solubility judged after dilution from a stock solution rather than from solid. As a reminder, the logP is a log measure of how a compound divides between an organic and an aqueous phase. Read a high logP as higher lipophilicity.

This is an account of results in ChEMBL document CHEMBL3585343, “Fragment-Based Discovery of Low-Micromolar ATAD2 Bromodomain Inhibitors” (J Med Chem, 2015).

The nature of data set [1]: Distribution coefficient, log D of the compound at pH 7.4 by chromatographic method. Format: physicochemical.
In data set [2] the target is Bromodomain-containing protein 4 (Homo sapiens, UniProt O60885, Y390A).
Data set [3] has as its target Bromodomain-containing protein 3 (Homo sapiens, UniProt Q15059, Y348A). In words: Binding affinity to 6-His-Thr BRD3 (1 to 435) BD1 (unknown origin) harboring BD2 Y348A mutant.
For data set [4], the target named is Bromodomain-containing protein 3 (Homo sapiens, UniProt Q15059, Y37A). In words: Binding affinity to BRD3 6-His-Thr BRD3 (1 to 435) BD2 (unknown origin) harboring BD1 Y37A mutant.
The target of data set [5] is Bromodomain testis-specific protein (Homo sapiens, UniProt Q58F21, Y309A). As to the kind of experiment: Binding affinity to 6-His-FLAG-Tev-BRDT BD1 (1 to 397) (unknown origin) harboring BD2 Y309A mutant.
The target in data set [6] is Bromodomain testis-specific protein (Homo sapiens, UniProt Q58F21, Y66A). In words: Binding affinity to 6-His-FLAG-Tev-BRDT BD2 (1 to 397) (unknown origin) harboring BD1 Y66A mutant.
The nature of data set [7]: Solubility of the compound in phosphate buffered saline at pH 7.4 after 1 hr by CLND method. Format: physicochemical.
The nature of data set [8]: Lipophilicity, log P of the compound. It counts as physicochemical. To be noted: octanol/water.
The nature of data set [9]: Permeability across phosphatidyl choline membrane at pH 7.4 after 3 hrs by HPLC with UV detection method. It counts as ADME. Conditions: not told, read-out: permeability.
Data set [10] concerns the target Bromodomain-containing protein 2 (Homo sapiens, UniProt P25440, Y386A).
Data set [11] addresses Bromodomain-containing protein 2 (Homo sapiens, UniProt P25440, Y113A).
For data set [12], the target named is Bromodomain-containing protein 4 (Homo sapiens, UniProt O60885, Y97A).

In brackets after ≈: the same amount, converted by molar mass.

Sequence of Bromodomain-containing protein 3 (Homo sapiens, UniProt Q15059, Y37A) (Q15059 whole entry, looked up, stated change not applied): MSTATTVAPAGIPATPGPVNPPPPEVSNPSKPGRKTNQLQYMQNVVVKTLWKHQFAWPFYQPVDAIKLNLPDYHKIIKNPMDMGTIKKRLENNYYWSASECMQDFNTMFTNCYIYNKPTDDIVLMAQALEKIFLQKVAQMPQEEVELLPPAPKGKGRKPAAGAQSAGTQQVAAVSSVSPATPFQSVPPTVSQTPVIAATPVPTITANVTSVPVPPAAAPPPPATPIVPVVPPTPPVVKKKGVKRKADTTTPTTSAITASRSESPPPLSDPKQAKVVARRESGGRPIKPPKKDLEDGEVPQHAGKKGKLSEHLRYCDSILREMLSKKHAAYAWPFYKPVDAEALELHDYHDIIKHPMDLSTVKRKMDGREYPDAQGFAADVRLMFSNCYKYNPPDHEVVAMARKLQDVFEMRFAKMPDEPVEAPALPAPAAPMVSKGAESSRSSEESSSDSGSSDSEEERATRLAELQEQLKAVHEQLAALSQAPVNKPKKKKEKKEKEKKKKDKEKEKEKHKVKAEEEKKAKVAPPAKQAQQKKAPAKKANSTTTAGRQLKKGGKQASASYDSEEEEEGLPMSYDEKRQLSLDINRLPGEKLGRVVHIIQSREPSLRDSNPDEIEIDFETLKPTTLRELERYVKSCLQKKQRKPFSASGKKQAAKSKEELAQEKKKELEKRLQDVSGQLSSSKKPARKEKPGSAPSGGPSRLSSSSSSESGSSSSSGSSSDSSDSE
Sequence of Bromodomain-containing protein 2 (Homo sapiens, UniProt P25440, Y386A) (P25440 whole entry Y386A): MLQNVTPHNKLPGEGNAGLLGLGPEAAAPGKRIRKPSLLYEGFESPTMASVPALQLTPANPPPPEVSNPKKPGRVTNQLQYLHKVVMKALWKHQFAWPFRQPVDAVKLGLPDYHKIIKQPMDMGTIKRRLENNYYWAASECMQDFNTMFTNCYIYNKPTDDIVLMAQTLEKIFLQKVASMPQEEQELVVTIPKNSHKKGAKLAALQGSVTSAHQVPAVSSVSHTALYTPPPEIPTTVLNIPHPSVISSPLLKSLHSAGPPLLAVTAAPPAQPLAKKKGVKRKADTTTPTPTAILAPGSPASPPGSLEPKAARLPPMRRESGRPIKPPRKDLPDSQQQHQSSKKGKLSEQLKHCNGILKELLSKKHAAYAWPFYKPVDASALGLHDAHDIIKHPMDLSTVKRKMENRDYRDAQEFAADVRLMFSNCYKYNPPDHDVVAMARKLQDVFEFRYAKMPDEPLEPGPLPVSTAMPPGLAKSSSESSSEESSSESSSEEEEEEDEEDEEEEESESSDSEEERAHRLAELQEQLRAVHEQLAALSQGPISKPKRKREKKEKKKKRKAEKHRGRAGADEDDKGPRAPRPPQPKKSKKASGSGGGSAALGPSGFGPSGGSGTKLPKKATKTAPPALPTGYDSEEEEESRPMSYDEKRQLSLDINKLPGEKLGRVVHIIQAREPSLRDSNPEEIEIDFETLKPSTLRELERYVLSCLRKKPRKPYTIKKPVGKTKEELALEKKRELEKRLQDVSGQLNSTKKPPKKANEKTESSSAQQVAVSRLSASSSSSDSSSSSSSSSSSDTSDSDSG
Sequence of Bromodomain-containing protein 3 (Homo sapiens, UniProt Q15059, Y348A) (Q15059 2-726 Y348A limits assumed): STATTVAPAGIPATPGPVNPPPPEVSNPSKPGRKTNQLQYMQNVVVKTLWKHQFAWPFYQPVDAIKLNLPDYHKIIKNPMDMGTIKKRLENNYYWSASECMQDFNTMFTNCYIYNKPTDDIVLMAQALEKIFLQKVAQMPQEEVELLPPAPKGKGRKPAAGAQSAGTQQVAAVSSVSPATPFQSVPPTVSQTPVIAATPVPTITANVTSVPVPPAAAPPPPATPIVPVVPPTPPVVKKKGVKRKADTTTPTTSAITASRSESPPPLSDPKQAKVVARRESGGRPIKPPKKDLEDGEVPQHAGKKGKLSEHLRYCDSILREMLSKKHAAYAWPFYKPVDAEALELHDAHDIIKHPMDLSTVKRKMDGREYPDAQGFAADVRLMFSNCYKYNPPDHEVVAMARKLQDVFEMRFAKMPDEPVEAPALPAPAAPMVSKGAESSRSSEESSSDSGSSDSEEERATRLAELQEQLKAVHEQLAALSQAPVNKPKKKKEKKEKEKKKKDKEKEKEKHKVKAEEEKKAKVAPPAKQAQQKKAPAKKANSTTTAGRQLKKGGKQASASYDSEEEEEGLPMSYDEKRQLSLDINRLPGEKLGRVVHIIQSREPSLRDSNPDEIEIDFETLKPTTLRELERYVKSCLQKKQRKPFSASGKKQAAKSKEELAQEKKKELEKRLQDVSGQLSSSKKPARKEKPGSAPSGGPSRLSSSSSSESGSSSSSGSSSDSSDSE
Sequence of Bromodomain-containing protein 2 (Homo sapiens, UniProt P25440, Y113A) (P25440 whole entry Y113A): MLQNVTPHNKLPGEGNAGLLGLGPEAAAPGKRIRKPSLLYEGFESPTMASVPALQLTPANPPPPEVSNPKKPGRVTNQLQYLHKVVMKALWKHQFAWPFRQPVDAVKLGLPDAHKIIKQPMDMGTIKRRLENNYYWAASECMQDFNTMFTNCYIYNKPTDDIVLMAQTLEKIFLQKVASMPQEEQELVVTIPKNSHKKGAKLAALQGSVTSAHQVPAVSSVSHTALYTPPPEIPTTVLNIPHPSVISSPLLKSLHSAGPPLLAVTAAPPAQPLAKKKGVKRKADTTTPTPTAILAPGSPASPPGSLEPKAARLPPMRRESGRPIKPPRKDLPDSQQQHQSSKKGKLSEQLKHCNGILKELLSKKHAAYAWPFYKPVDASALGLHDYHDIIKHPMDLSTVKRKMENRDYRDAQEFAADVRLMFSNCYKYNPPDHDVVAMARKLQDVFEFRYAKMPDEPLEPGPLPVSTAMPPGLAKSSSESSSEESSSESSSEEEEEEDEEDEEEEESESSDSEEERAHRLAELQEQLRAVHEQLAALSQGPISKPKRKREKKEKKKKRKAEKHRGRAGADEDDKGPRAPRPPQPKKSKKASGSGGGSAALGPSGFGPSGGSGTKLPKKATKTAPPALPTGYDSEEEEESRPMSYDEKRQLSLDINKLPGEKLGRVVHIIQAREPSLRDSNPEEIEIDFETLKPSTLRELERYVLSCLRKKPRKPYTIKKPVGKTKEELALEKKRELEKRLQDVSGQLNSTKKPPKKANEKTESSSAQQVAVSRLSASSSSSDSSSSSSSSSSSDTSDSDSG

Regarding `Cc1cc2c(-c3cncc(N)c3)cnc(NC3CCNCC3)c2[nH]c1=O`, in data set [1], the chromatographic logD was determined as 0. In addition, in [2], the IC50 is 2 µM.
On the same counts, the results for `Cc1cc2c(-c3cccc4[nH]ncc34)cnc(NC3CCNCC3)c2[nH]c1=O` are 1.2 and 0.126 µM.
For `Cc1cncc(-c2cnc(NC3CCNCC3)c3[nH]c(=O)c(C)cc23)c1C`, in that order: 1.4 and 7.94 µM.
In data set [1], `Cc1cc2ccnc(NC3CCNCC3)c2[nH]c1=O` returned a chromatographic logD of 0.6.
In turn, `COCCN1CCC(Nc2nccc3cc(C)c(=O)[nH]c23)CC1` displayed a chromatographic logD in data set [1] of 1.4.
For `CCCNc1cccc2cc(C)c(=O)[nH]c12`, the IC50 in [2] was over 50.1 µM.
Consider `Cc1cc2ccnc(NCC(C)(C)CN(C)C)c2[nH]c1=O`, for which, in [2], the IC50 is 158 µM.
With `Cc1cc2c(-c3cc[nH]n3)cnc(NC3CCNCC3)c2[nH]c1=O`, in data set [1], the chromatographic logD is 0.4. Besides, the IC50 in [2] is 1.26 µM.
On the same counts, the results for `Cc1cc2c(-c3cncnc3)cnc(NC3CCNCC3)c2[nH]c1=O` are 0.3 and 15.8 µM.
For the compound `Cc1cc2ccnc(N[C@@H]3CCCNC3)c2[nH]c1=O`, in [2], the IC50 is 15.8 µM.
`Cc1cc2cccc(NCCCN(C)C)c2[nH]c1=O` had an IC50 in data set [2] of 10 µM.
Compound `Cc1cc2c(-c3cccnc3)cnc(NC3CCNCC3)c2[nH]c1=O` had a chromatographic logD in data set [1] of 0.8. For the same compound, in [2], it took 2 µM to reach half-maximal inhibition (IC50).
In turn, `COc1ccc(-c2cnc(NC3CCNCC3)c3[nH]c(=O)c(C)cc23)cn1` displayed a chromatographic logD in [1] of 1.6. This compound had an IC50 in [2] of 1.26 µM.
For `Cc1ccc(-c2cnc(NC3CCNCC3)c3[nH]c(=O)c(C)cc23)cn1`, in that order: 1.1 and 1 µM.
Regarding `Cc1cc2cccc(NCCO)c2[nH]c1=O`, half-maximal inhibition in data set [2] (IC50) required 39.8 µM.
`CC(=O)N1CCc2cc(-c3cnc(NC4CCNCC4)c4[nH]c(=O)c(C)cc34)ccc21` returned a chromatographic logD in data set [1] of 1.4. The same compound gave an IC50 in data set [2] of 1 µM.
For `Cc1cc2c(-c3cncc(Cl)c3)cnc(NC3CCNCC3)c2[nH]c1=O`, in that order: 1.7 and 6.31 µM.
`Cc1cc2ccnc(N[C@@H]3C[C@H]4CC[C@@H](C3)N4C)c2[nH]c1=O` came in with a chromatographic logD in data set [1] of 1.
Turning to `Cc1cncc(-c2cnc(NC3CCNCC3)c3[nH]c(=O)c(C)cc23)c1`, in [1], the chromatographic logD was 1.2. Moreover, the IC50 was 7.94 µM in [3]; 20 µM in data set [4]; 7.94 µM in data set [5]; 31.6 µM in [6]; 6.31 µM in data set [10]; 20 µM in [11]. In addition, in data set [7], the solubility (kinetic) at 1 h was at least 207 µM. In data set [8], this compound came in with a log partition coefficient (logP) of 2.4. The Papp at 3 h in data set [9] was under 0.3 ×10⁻⁶ cm/s.
As for `Cc1cc2ccnc(NC3CCN(C4CC4)CC3)c2[nH]c1=O`, in data set [1], the chromatographic logD turned out to be 2.8.
With `Cc1cc2c(-c3ccncc3)cnc(NC3CCNCC3)c2[nH]c1=O`, in data set [1], the chromatographic logD came out at 1. The half-inhibitory concentration (IC50) in [2] is 3.16 µM.
The compound `Cc1cc2ccccc2[nH]c1=O` gave an IC50 in data set [2] of 39.8 µM.
With `Cc1cc2c(-c3ccccn3)cnc(NC3CCNCC3)c2[nH]c1=O`, in [1], the chromatographic logD worked out at 1. This compound also had an IC50 in data set [2] of 5.01 µM.
The compound `Cc1cc2ccnc(N[C@H]3C[C@H]4CC[C@@H](C3)N4C)c2[nH]c1=O` displayed a chromatographic logD in data set [1] of 1.2.
`Cc1cc2ccnc(NC3CCN(C)CC3)c2[nH]c1=O` displayed a chromatographic logD in data set [1] of 0.5.
For the compound `COc1cncc(-c2cnc(NC3CCNCC3)c3[nH]c(=O)c(C)cc23)c1`, the chromatographic logD in data set [1] was found to be 1.1. Also, the IC50 in data set [3] was 6.31 µM; in [4], 20 µM; in data set [5] it was 6.31 µM; in data set [6], 25.1 µM; in [2], 1.26 µM; in data set [12], 15.8 µM. Also, the values for the IC50 in data set [10] and in data set [11] were 3.98 µM and 20 µM, respectively. This compound gave a kinetic solubility at 1 h in [7] of 250 µM (≈ 91.4 µg/mL). This compound also came in with a logP in data set [8] of 2.7. Besides, the Papp at 3 h in data set [9] is under 0.3 ×10⁻⁶ cm/s.
Take `Cc1cc2ccnc(NCCC3CCCNC3)c2[nH]c1=O` (configuration not stated): the IC50 in [2] was 25.1 µM. This counts as double-digit micromolar.
In data set [1], `Cc1ncccc1-c1cnc(NC2CCNCC2)c2[nH]c(=O)c(C)cc12` yielded a chromatographic logD of 0.8. In addition, in [2], inhibition was half-maximal at 6.31 µM (IC50).
Compound `Cc1cc2ccnc(NCCC3CCNCC3)c2[nH]c1=O` showed an IC50 in [2] of 12.6 µM.
In turn, `Cc1cc2c(-c3cncc(C(N)=O)c3)cnc(NC3CCNCC3)c2[nH]c1=O` displayed a chromatographic logD in data set [1] of -0.2. The IC50 in data set [2] was 3.98 µM.
As for `Cc1cc2cccc(NCCN(C)C)c2[nH]c1=O`, the IC50 in [2] was 25.1 µM. In other words, the double-digit micromolar range.
In [1], `Cc1ccncc1-c1cnc(NC2CCNCC2)c2[nH]c(=O)c(C)cc12` came in with a chromatographic logD of 0.9. This compound had an IC50 in [2] of 3.16 µM.
`Cc1cc2c(-c3cncc(COC(N)=O)c3)cnc(NC3CCNCC3)c2[nH]c1=O` had a chromatographic logD in [1] of 0.3.
In [1], `COCCCN1CCC(Nc2nccc3cc(C)c(=O)[nH]c23)CC1` yielded a chromatographic logD of 1.4. In data set [2], this compound gave an IC50 of 3.98 µM.
On the same counts, the results for `Cc1cc2c(-c3cncc(NS(C)(=O)=O)c3)cnc(NC3CCNCC3)c2[nH]c1=O` are 0.2 and 0.794 µM.
In the case of `Cc1cc2cccc(NCCC(=O)O)c2[nH]c1=O`, the IC50 in [2] is over 50.1 µM.
The same measure, in the same setting: the value for `Cc1cc2cccc(NCc3ncc[nH]3)c2[nH]c1=O` was 50.1 µM.
For `Cc1cc2c(-c3cn[nH]c3)cnc(NC3CCNCC3)c2[nH]c1=O`, the chromatographic logD in data set [1] amounted to 0. The compound further had an IC50 in data set [2] of 0.794 µM.
Consider `COCCNc1cccc2cc(C)c(=O)[nH]c12`, for which the concentration for half-maximal inhibition (IC50) in [2] was over 50.1 µM.
`Cc1cc2cccc(NCCCO)c2[nH]c1=O` had an IC50 in [2] of 5.01 µM.
`Cc1cc2c(-c3ccccc3)cnc(NC3CCNCC3)c2[nH]c1=O` came in with a chromatographic logD in data set [1] of 2.5. The IC50 in data set [2] was 0.794 µM.
On the same counts, the results for `Cc1cc2c(-c3cccc(O)c3)cnc(NC3CCNCC3)c2[nH]c1=O` are 1.3 and 0.631 µM.
